Measurements from patent US20130183706A1, “Method for Culturing Adipocytes” (ASSISTANCE PUBLIQUE-HOPITAUX DE PARIS, priority 2010, published 2013).

Tested on: Akt phosphorylation in mature adipocytes
Experiment: Measurement of insulin sensitivity (Ser473 Akt phosphorylation, immunoelectrophoresis)
Format: cell-based, human
Conditions: insulin 10 nM, 15 to 30 minutes; freshly isolated adipocytes (2D) and adipocytes kept 48 h in hydrogel (3D)
Experimental: The mature adipocytes are isolated by collagenase treatment of human adipose tissue. The subcutaneous human adipose tissue of young women (<45 years) who are not obese (BMI<30) is cut up in digestion medium (DMEM, 2% essentially fatty acid free albumin (A6003, Sigma, St Louis, […]., USA), 1 mg/ml collagenase A (Roche Diagnostics, Mannheim, Germany)) in the proportion of 1 g of tissue per 2 ml of digestion medium in polypropylene tubes. The tubes are placed at 37° C. for […] with agitation (200 cycles/minute). After digestion, the medium is filtered through woven cotton gauze. The mature adipocytes are left to decant by floating for 5 minutes and are then washed 3 times with 5 volumes of 10% sucrose. At the end of the final wash, the sucrose is removed and the mature adipocytes are ready to be incorporated into the PuraMatrix™ hydrogel.
The wells containing the hydrogel/adipocytes deprived of insulin the day before are incubated with the incubation medium (150 μl) (DMEM/F12 and 10 nM insulin). The plates are then placed in the incubator for 15 to 30 minutes. […] The signals are detected by chemiluminescence (Detection ECL, GE Healthcare) and quantified by densitometry.

## Insulin: major anabolic hormone
  Akt phosphorylation (Ser473): stimulates
